Values after ≈ are worked out from the molar mass of the structure shown. Where two headings read alike, the source gives them in different places.
What was measured:
[1] = target: T1, PBP3 from Escherichia coli (K-12) (Escherichia coli, UniProt P0AD68); test: Bocillin-FL fluorescence polarization competition binding, E. coli PBP3
T1 construct: made in house
Summary of the method: (§1)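 Purified PBP was preincubated with inhibitor (E. coli PBP3 1.5 μM, 30 min; P. aeruginosa PBP3 0.75 μM, A. baumannii PBP3 0.2 μM and PBP1a 1 μM, 15 min), then Bocillin-FL (0.1 μM; 0.05 μM for PBP1a) added and FP read up to 60 min. EC50 = 50% loss of bound probe.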

[2] = target: T2, PBP3 from Pseudomonas aeruginosa (PAO1) (Pseudomonas aeruginosa, UniProt G3XD46); test: Bocillin-FL fluorescence polarization competition binding, P. aeruginosa PBP3; details: Binding affinity to P. aeruginosa PBP3; fluorescence polarization competition binding assay using Bocillin-FL; read-out: P. aeruginosa PBP3 Potency
T2 construct: made in house
Summary of the method: as §1

P. aeruginosa ATCC 27853 = test: microbe, parasite or virus in culture; format: cell-based; details: Pseudomonas aeruginosa, ATCC27853, read-out: Minimum inhibitory concentration, P. aeruginosa ATCC 27853
A. baumannii ATCC 17978 = test: microbe, parasite or virus in culture; format: cell-based; details: Acinetobacter baumannii, ATCC17978, read-out: MIC, A. baumannii ATCC 17978
P. aeruginosa CDC-0054 = test: microbe, parasite or virus in culture; format: cell-based; details: Pseudomonas aeruginosa, CDC0054, read-out: Minimum inhibitory concentration, P. aeruginosa CDC-0054
P. aeruginosa CDC-0095 = test: microbe, parasite or virus in culture; format: cell-based; details: Pseudomonas aeruginosa, CDC0095, read-out: Minimum inhibitory concentration, P. aeruginosa CDC-0095
A. baumannii CDC-0033 = test: microbe, parasite or virus in culture; format: cell-based; details: Acinetobacter baumannii, CDC0033, read-out: MIC, A. baumannii CDC-0033
A. baumannii CDC-0036 = test: microbe, parasite or virus in culture; format: cell-based; details: Acinetobacter baumannii, CDC0036, read-out: MIC, A. baumannii CDC-0036
[3] = system: B. humptydooensis ATCC BAA-2767; test: microbe, parasite or virus in culture; format: cell-based; details: Burkholderia humptydooensis, ATCCBAA2767, read-out: Minimum inhibitory concentration (MIC), B. humptydooensis ATCC BAA-2767
P. aeruginosa CDC-0110 = test: microbe, parasite or virus in culture; format: cell-based; details: Pseudomonas aeruginosa, CDC0110, read-out: Minimum inhibitory concentration, P. aeruginosa CDC-0110
N. gonorrhoeae FA1090 = test: Liquid broth MIC in Fastidious broth; details: Neisseria gonorrhoeae
N. gonorrhoeae MS11 = test: Liquid broth MIC in Fastidious broth; details: Neisseria gonorrhoeae
Protocol: Additional antibacterial testing of the series was performed in 8 reference strains of N. gonorrhoeae (ATCC 49226, FA1090, MS 11, WHO G, WHO L, WHO M, WHO K, WHO X, WHO Z, WHO Q, CDC-0197). ATCC 49226, FA1090, MS11, WHO G, WHO L, and WHO M produce wild type or wild-type like PBP2. WHO K, WHO X, WHO Z, WHO Q, and CDC-0197 produce mosaic PBP2. Liquid broth-based assays were used for antibacterial testing of PBP inhibitors in Neisseria gonorrhoeae. Briefly, cryo-preserved bacterial cultures of clinical strains were streaked for isolation on Chocolate Agar (72 g/L (2×) GC Agar Base (BD #228950) and 2% (2×) Hemoglobin was autoclaved at 121° C. for 20 minutes to sterilize. Once cooled to ˜50° C. the 2×GC Agar Base and 2× Hemoglobin solutions are combined and 1% IsoVitaleX Enrichment (BD #211876) was added to the solution). Strains were incubated at 36° C. and 5% CO2 to allow growth of colonies, 24 hours before inoculum preparation. 2-fold serial dilutions of test compounds were conducted in a 96 well plate with a final volume of 75 μL per well at 2-fold the final desired concentration in Fastidious broth (Remel #R07664). For preparation of assay inoculum, a direct suspension was prepared by aseptically swabbing 10-15 colonies from agar plates into culture tubes containing 2 mL of fresh sterile saline. After the dilution plates were set up, direct suspensions were then diluted in a cuvette containing sterile saline and the optical density was measured at 600 nm. Inocula were diluted such that 75 μL of this culture in Fastidious broth results in a starting bacterial concentration of 5×10^5 CFU/mL when added to the dilution plates. The plates were incubated for ˜24 hours at 36° C. and 5% CO2.

N. gonorrhoeae WHO L = test: Liquid broth MIC in Fastidious broth; details: Neisseria gonorrhoeae
N. gonorrhoeae WHO K = test: Liquid broth MIC in Fastidious broth; details: Neisseria gonorrhoeae
Protocol: Liquid broth-based assays were used for antibacterial testing of PBP inhibitors in Neisseria gonorrhoeae. Briefly, cryo-preserved bacterial cultures of clinical strains were streaked for isolation on Chocolate Agar (72 g/L (2×) GC Agar Base (BD #228950) and 2% (2×) Hemoglobin was autoclaved at 121° C. for 20 minutes to sterilize. Once cooled to ˜50° C. the 2×GC Agar Base and 2× Hemoglobin solutions are combined and 1% IsoVitaleX Enrichment (BD #211876) was added to the solution). Strains were incubated at 36° C. and 5% CO2 to allow growth of colonies, 24 hours before inoculum preparation. 2-fold serial dilutions of test compounds were conducted in a 96 well plate with a final volume of 75 μL per well at 2-fold the final desired concentration in Fastidious broth (Remel #R07664). For preparation of assay inoculum, a direct suspension was prepared by aseptically swabbing 10-15 colonies from agar plates into culture tubes containing 2 mL of fresh sterile saline. After the dilution plates were set up, direct suspensions were then diluted in a cuvette containing sterile saline and the optical density was measured at 600 nm. Inocula were diluted such that 75 μL of this culture in Fastidious broth results in a starting bacterial concentration of 5×10^5 CFU/mL when added to the dilution plates. The plates were incubated for ˜24 hours at 36° C. and 5% CO2.

N. gonorrhoeae WHO Z = test: Liquid broth MIC in Fastidious broth; details: Neisseria gonorrhoeae
[4] = FA1090, read-out: Minimum Inhibitory Concentration, FA 1090
[5] = MS11, read-out: Minimum Inhibitory Concentration, MS11
[6] = read-out: Minimum Inhibitory Concentration, WHO L
[7] = read-out: Minimum Inhibitory Concentration, WHO K
[8] = read-out: Minimum Inhibitory Concentration, WHO Z
[9] = FA1090, read-out: Minimum Inhibitory Concentration (MIC), N. gonorrhoeae FA 1090
[10] = MS11, read-out: Minimum Inhibitory Concentration (MIC), N. gonorrhoeae MS11
[11] = read-out: Minimum Inhibitory Concentration (MIC), N. gonorrhoeae WHO L
[12] = read-out: Minimum Inhibitory Concentration (MIC), N. gonorrhoeae WHO K
[13] = read-out: Minimum Inhibitory Concentration (MIC), N. gonorrhoeae WHO Z

T1 sequence (P0AD68 1-577): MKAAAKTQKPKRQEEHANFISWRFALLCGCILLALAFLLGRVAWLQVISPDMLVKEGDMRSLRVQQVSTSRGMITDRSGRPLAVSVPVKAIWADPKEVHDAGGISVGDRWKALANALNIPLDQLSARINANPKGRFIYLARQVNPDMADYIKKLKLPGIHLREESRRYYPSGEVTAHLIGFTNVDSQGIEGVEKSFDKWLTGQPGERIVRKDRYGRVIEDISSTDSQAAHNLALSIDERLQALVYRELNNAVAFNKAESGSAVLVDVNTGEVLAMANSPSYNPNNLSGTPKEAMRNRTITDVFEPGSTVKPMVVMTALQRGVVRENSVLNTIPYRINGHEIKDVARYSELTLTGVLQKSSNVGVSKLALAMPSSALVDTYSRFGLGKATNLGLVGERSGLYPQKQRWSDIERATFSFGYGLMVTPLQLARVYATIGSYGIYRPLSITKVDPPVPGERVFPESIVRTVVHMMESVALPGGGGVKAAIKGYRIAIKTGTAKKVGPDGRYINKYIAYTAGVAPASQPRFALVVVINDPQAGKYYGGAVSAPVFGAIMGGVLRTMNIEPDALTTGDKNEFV
T2 sequence (G3XD46 whole entry): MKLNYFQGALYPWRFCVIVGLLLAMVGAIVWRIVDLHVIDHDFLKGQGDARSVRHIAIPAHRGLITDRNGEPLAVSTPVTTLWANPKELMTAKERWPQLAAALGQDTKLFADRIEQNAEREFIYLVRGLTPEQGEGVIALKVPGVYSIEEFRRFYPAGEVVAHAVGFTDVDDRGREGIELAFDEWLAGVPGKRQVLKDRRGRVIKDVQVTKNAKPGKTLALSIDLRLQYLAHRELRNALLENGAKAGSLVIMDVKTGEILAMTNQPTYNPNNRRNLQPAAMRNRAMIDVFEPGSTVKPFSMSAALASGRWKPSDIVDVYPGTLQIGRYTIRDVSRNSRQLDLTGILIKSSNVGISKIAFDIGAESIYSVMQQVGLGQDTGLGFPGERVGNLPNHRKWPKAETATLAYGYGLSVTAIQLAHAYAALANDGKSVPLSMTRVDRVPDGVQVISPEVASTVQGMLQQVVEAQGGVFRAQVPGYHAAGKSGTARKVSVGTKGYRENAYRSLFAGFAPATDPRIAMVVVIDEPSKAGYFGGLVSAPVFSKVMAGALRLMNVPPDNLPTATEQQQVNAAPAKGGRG

Compound | EC50 [1] | IC50 [2] | MIC (P. aeruginosa ATCC 27853) | MIC (A. baumannii ATCC 17978) | MIC (P. aeruginosa CDC-0054) | MIC (P. aeruginosa CDC-0095) | MIC (A. baumannii CDC-0033) | MIC (A. baumannii CDC-0036) | MIC [3] | MIC (P. aeruginosa CDC-0110) | MIC (N. gonorrhoeae FA1090; [4]) | MIC (N. gonorrhoeae MS11; [5]) | MIC (N. gonorrhoeae WHO L; [6]) | MIC (N. gonorrhoeae WHO K; [7]) | MIC (N. gonorrhoeae WHO Z; [8]) | MIC (N. gonorrhoeae FA1090; [9]) | MIC (N. gonorrhoeae MS11; [10]) | MIC (N. gonorrhoeae WHO L; [11]) | MIC (N. gonorrhoeae WHO K; [12]) | MIC (N. gonorrhoeae WHO Z; [13])
O=C(NCCCN1CCN(C(=O)NC(C(=O)N[C@H]2Cc3ccc(F)c(C(=O)O)c3OB2O)c2cc(F)c(O)c(O)c2Cl)C1=O)Nc1cccnc1 (stereo partly drawn) [Example 259, (3R)-3-(2-(2-chloro-5-fluoro-3,4-dihydroxyphenyl)-2-(2-oxo-3-(3-(3-(pyridin-3-yl)ureido)propyl)imidazolidine-1-carboxamido)acetamido)-7-fluoro-2-hydroxy-3,4-dihydro-2H-benzo[e][1,2]oxaborinine-8-carboxylic acid] | < 10 µM | < 10 µM | < 1 µg/mL | < 1 µg/mL | 2 to 4 µg/mL (≈ 2.73 to 5.47 µM) | 2 to 4 µg/mL (≈ 2.73 to 5.47 µM) | 2 to 4 µg/mL (≈ 2.73 to 5.47 µM) | < 1 µg/mL | < 1 µg/mL | < 1 µg/mL | 1 to 2 µg/mL (≈ 1.37 to 2.73 µM) | 16 to 32 µg/mL (≈ 21.9 to 43.7 µM) | > 64 µg/mL | > 64 µg/mL | 16 to 32 µg/mL (≈ 21.9 to 43.7 µM) |  |  |  |  | 
CN(CCN1CCN(C(=O)N[C@@H](C(=O)N[C@H]2Cc3ccc(F)c(C(=O)O)c3OB2O)c2cc(F)c(O)c(O)c2Cl)C(=O)C1=O)Cc1ccc(C(N)=O)cc1 [Example 226, (R)-3-((R)-2-(4-(2-((4-carbamoylbenzyl)(methyl)amino)ethyl)-2,3-dioxopiperazine-1-carboxamido)-2-(2-chloro-5-fluoro-3,4-dihydroxyphenyl)acetamido)-7-fluoro-2-hydroxy-3,4-dihydro-2H-benzo[e][1,2]oxaborinine-8-carboxylic acid] | < 10 µM | < 10 µM | 2 to 4 µg/mL (≈ 2.59 to 5.18 µM) | < 1 µg/mL | 8 to 16 µg/mL (≈ 10.4 to 20.7 µM) | 2 to 4 µg/mL (≈ 2.59 to 5.18 µM) | 2 to 4 µg/mL (≈ 2.59 to 5.18 µM) | 2 to 4 µg/mL (≈ 2.59 to 5.18 µM) | < 1 µg/mL | < 1 µg/mL |  |  |  |  |  | 1 to 2 µg/mL (≈ 1.29 to 2.59 µM) | 16 to 32 µg/mL (≈ 20.7 to 41.4 µM) | > 64 µg/mL | > 64 µg/mL | 16 to 32 µg/mL (≈ 20.7 to 41.4 µM)
O=C(CN1CCN(C(=O)NC(C(=O)N[C@H]2Cc3ccc(F)c(C(=O)O)c3OB2O)c2cc(F)c(O)c(O)c2Cl)C(=O)C1=O)Nc1ccccc1 (stereo partly drawn) [Example 232, (3R)-3-(2-(2-chloro-5-fluoro-3,4-dihydroxyphenyl)-2-(2,3-dioxo-4-(2-oxo-2-(phenylamino)ethyl)piperazine-1-carboxamido)acetamido)-7-fluoro-2-hydroxy-3,4-dihydro-2H-benzo[e][1,2]oxaborinine-8-carboxylic acid] | < 10 µM | < 10 µM | 2 to 4 µg/mL (≈ 2.79 to 5.59 µM) | 2 to 4 µg/mL (≈ 2.79 to 5.59 µM) | 2 to 4 µg/mL (≈ 2.79 to 5.59 µM) | 2 to 4 µg/mL (≈ 2.79 to 5.59 µM) | 32 to 64 µg/mL (≈ 44.7 to 89.4 µM) | 8 to 16 µg/mL (≈ 11.2 to 22.4 µM) | > 128 µg/mL | 2 to 4 µg/mL (≈ 2.79 to 5.59 µM) |  |  |  |  |  | 1 to 2 µg/mL (≈ 1.4 to 2.79 µM) | 16 to 32 µg/mL (≈ 22.4 to 44.7 µM) | > 64 µg/mL | > 64 µg/mL | 16 to 32 µg/mL (≈ 22.4 to 44.7 µM)
O=C(NCCN1CCN(C(=O)NC(C(=O)N[C@H]2Cc3ccc(F)c(C(=O)O)c3OB2O)c2cc(F)c(O)c(O)c2Cl)C(=O)C1=O)c1cccc(O)c1 (stereo partly drawn) [Example 215, (3R)-3-(2-(2-chloro-5-fluoro-3,4-dihydroxyphenyl)-2-(4-(2-(3-hydroxybenzamido)ethyl)-2,3-dioxopiperazine-1-carboxamido)acetamido)-7-fluoro-2-hydroxy-3,4-dihydro-2H-benzo[e][1,2]oxaborinine-8-carboxylic acid] | < 10 µM | < 10 µM | 2 to 4 µg/mL (≈ 2.68 to 5.36 µM) | < 1 µg/mL | 8 to 16 µg/mL (≈ 10.7 to 21.5 µM) | 2 to 4 µg/mL (≈ 2.68 to 5.36 µM) | 8 to 16 µg/mL (≈ 10.7 to 21.5 µM) | 8 to 16 µg/mL (≈ 10.7 to 21.5 µM) | < 1 µg/mL | < 1 µg/mL |  |  |  |  |  | 1 to 2 µg/mL (≈ 1.34 to 2.68 µM) | 16 to 32 µg/mL (≈ 21.5 to 42.9 µM) | > 64 µg/mL | > 64 µg/mL | 16 to 32 µg/mL (≈ 21.5 to 42.9 µM)
O=C(NCCCN1CCN(C(=O)NC(C(=O)N[C@H]2Cc3ccc(F)c(C(=O)O)c3OB2O)c2cc(F)c(O)c(O)c2Cl)C(=O)C1=O)Nc1ccncc1 (stereo partly drawn) [Example 228, (3R)-3-(2-(2-chloro-5-fluoro-3,4-dihydroxyphenyl)-2-(2,3-dioxo-4-(3-(3-(pyridin-4-yl)ureido)propyl)piperazine-1-carboxamido)acetamido)-7-fluoro-2-hydroxy-3,4-dihydro-2H-benzo[e][1,2]oxaborinine-8-carboxylic acid] | < 10 µM | < 10 µM | < 1 µg/mL | < 1 µg/mL | < 1 µg/mL | 2 to 4 µg/mL (≈ 2.63 to 5.26 µM) | 2 to 4 µg/mL (≈ 2.63 to 5.26 µM) | 2 to 4 µg/mL (≈ 2.63 to 5.26 µM) | < 1 µg/mL | < 1 µg/mL |  |  |  |  |  | 1 to 2 µg/mL (≈ 1.32 to 2.63 µM) | > 64 µg/mL | > 64 µg/mL | > 64 µg/mL | > 64 µg/mL
O=C(NCCN1CCN(C(=O)NC(C(=O)N[C@H]2Cc3ccc(F)c(C(=O)O)c3OB2O)c2cc(F)c(O)c(O)c2Cl)C1=O)c1cccnc1 (stereo partly drawn) [Example 246, (3R)-3-(2-(2-chloro-5-fluoro-3,4-dihydroxyphenyl)-2-(3-(2-(nicotinamido)ethyl)-2-oxoimidazolidine-1-carboxamido)acetamido)-7-fluoro-2-hydroxy-3,4-dihydro-2H-benzo[e][1,2]oxaborinine-8-carboxylic acid] | 10 to 50 µM | < 10 µM | 2 to 4 µg/mL (≈ 2.85 to 5.69 µM) | < 1 µg/mL | 2 to 4 µg/mL (≈ 2.85 to 5.69 µM) | 2 to 4 µg/mL (≈ 2.85 to 5.69 µM) | 2 to 4 µg/mL (≈ 2.85 to 5.69 µM) | 2 to 4 µg/mL (≈ 2.85 to 5.69 µM) | 2 to 4 µg/mL (≈ 2.85 to 5.69 µM) | < 1 µg/mL | 4 to 8 µg/mL (≈ 5.69 to 11.4 µM) | 16 to 32 µg/mL (≈ 22.8 to 45.5 µM) | > 64 µg/mL | > 64 µg/mL | 16 to 32 µg/mL (≈ 22.8 to 45.5 µM) |  |  |  |  | 
O=C(NCCN1CCN(C(=O)NC(C(=O)N[C@H]2Cc3ccc(F)c(C(=O)O)c3OB2O)c2cc(F)c(O)c(O)c2Cl)C1=O)c1cccc(O)c1 (stereo partly drawn) [Example 244, (3R)-3-(2-(2-chloro-5-fluoro-3,4-dihydroxyphenyl)-2-(3-(2-(3-hydroxybenzamido)ethyl)-2-oxoimidazolidine-1-carboxamido)acetamido)-7-fluoro-2-hydroxy-3,4-dihydro-2H-benzo[e][1,2]oxaborinine-8-carboxylic acid] | 10 to 50 µM | < 10 µM | 2 to 4 µg/mL (≈ 2.79 to 5.57 µM) | < 1 µg/mL | 2 to 4 µg/mL (≈ 2.79 to 5.57 µM) | 32 to 64 µg/mL (≈ 44.6 to 89.2 µM) | 2 to 4 µg/mL (≈ 2.79 to 5.57 µM) | 2 to 4 µg/mL (≈ 2.79 to 5.57 µM) | 2 to 4 µg/mL (≈ 2.79 to 5.57 µM) | 2 to 4 µg/mL (≈ 2.79 to 5.57 µM) |  |  |  |  |  | 4 to 8 µg/mL (≈ 5.57 to 11.1 µM) | > 64 µg/mL | > 64 µg/mL | > 64 µg/mL | > 64 µg/mL
O=C(NCCN1CCN(C(=O)NC(C(=O)N[C@H]2Cc3ccc(F)c(C(=O)O)c3OB2O)c2cc(F)c(O)c(O)c2Cl)C(=O)C1=O)c1nccs1 (stereo partly drawn) [Example 218, (3R)-3-(2-(2-chloro-5-fluoro-3,4-dihydroxyphenyl)-2-(2,3-dioxo-4-(2-(thiazole-2-carboxamido)ethyl)piperazine-1-carboxamido)acetamido)-7-fluoro-2-hydroxy-3,4-dihydro-2H-benzo[e][1,2]oxaborinine-8-carboxylic acid] | < 10 µM | < 10 µM | 2 to 4 µg/mL (≈ 2.71 to 5.43 µM) | < 1 µg/mL | 8 to 16 µg/mL (≈ 10.9 to 21.7 µM) | 8 to 16 µg/mL (≈ 10.9 to 21.7 µM) | 8 to 16 µg/mL (≈ 10.9 to 21.7 µM) | 8 to 16 µg/mL (≈ 10.9 to 21.7 µM) | 2 to 4 µg/mL (≈ 2.71 to 5.43 µM) | 2 to 4 µg/mL (≈ 2.71 to 5.43 µM) |  |  |  |  |  | 1 to 2 µg/mL (≈ 1.36 to 2.71 µM) | 16 to 32 µg/mL (≈ 21.7 to 43.4 µM) | > 64 µg/mL | > 64 µg/mL | > 64 µg/mL

Reference: patent US20240270762A1, “PENICILLIN-BINDING PROTEIN INHIBITORS” (priority 2021, published 2024)
